Assay results taken from patent publication US4531001A, “2-β-D-ribofuranosylselenazole-4-carboxamide compounds” (priority 1983, dated 1985).
In brackets after ≈: the same amount, converted by molar mass. Several values for one entry are separate records, joined by “and”; a condition that tells them apart may be missing. Identical values can stand only once. Entries after “also recorded” stand apart in the source; their conditions may differ. Like-named read-outs stand apart in the source and are kept apart here.

Key:
cell culture = test: Cytotoxicity in cell culture
Vero cells = test: Toxicity to Vero cells; conditions: 1000 ug/ml (highest concentration tested)
Lewis lung carcinoma [1] = test: Antitumor activity against Lewis lung carcinoma, Example 12 (Table 1); type: in vivo, B6 D2 F1 male mice; conditions: for Treated Group Survival Time: median, control 19.0, 60-day test
Description: (§1) As illustrative examples of the antitumor use of COMPOUNDS 1 and 2, Examples 12 through 14, below, are given. […] The tests utilized in these illustrative examples were conducted by the Developmental Therapeutics Program, Division of Cancer Treatment, National Cancer Institute. The tests were supervised by this agency utilizing their standard protocols and procedures. All tests conformed to these protocols and all tests were evaluated under the criteria defined by these protocols. The following representative examples illustrate confirmed activity of the illustrative compounds of the invention against screening tumor systems of the National Cancer Institute.
(§2) For purposes of the following examples, the abbreviation IP stands for intraperitoneal and IV stands for intravenous. The mean and median survival times are calculated in instruction 14 (revised 6/78) of the Screening Data Summary, Developmental Therapeutics Program, Division of Cancer Treatment, National Cancer Institute. The contents of this Screening Data Summary including appropriate revisions are herein incorporated by reference.
(§3) In the illustrated examples below, the vehicle used as carrier for the drug was injected (minus any drug therein) into the control animals at the same level of use of the vehicle in the drug treated animals in order to eliminate any vehicle effect of the tests.
For example 12, B6 D2 F1 male mice were used and challenged with Lewis lung carcinoma. The median survival time of the test animals was compared to that of appropriate control animals.
In Example 12, forty control animals and ten test animals were used, each at dose levels indicated below in Table 1. For both the control group and the drug treated group, tumors were induced by IV injection on day zero followed by initiation of drug treatment on day one. For Example 12 water was used as the drug vehicle.
In both the control group and the drug treated group in Example 12, the animals were inoculated on day zero with a homogenate of 10^6 seed cells of Lewis lung carcinoma. For Example 12, drug treatment was started on day one and COMPOUND 1 given once daily for nine days. Day five was utilized as the cut-off date for deaths attributable to toxicity of the drug. […] Efficacy of treatment was determined by comparing median survival time of the control animals and is expressed as percentage increase of treated animals/control animals (T/C).
The test period was for sixty days and at the end of the sixty day period all animals surviving in the test groups were evaluated as either cured, no-takes, or tumor survivors.
In this example, the drug tested animals were injected IP with the dose level noted in Table I below. Ten animals were treated at each dose level. No control animals survived beyond day 23 with a median death rate of day 19.0.

VSV = test: microbe, parasite or virus in culture; type: cell-based; conditions: for Virus Rating: >1.0 definite, 0.5-0.9 moderate, <0.5 slight or no activity; for EC50: Vesicular stomatitis virus, read-out: ED50
DNA and RNA viruses = test: Antiviral activity against the DNA and RNA virus panel; type: cell-based
Text: Microbiol. 22, 797 (1971). A virus rating that is greater than 1.0 indicates definite antiviral activity. […] The results reported below were obtained by testing on Microtest II (Falcon Plastics) plastic panels with a monolayer of Vero or HeLa cells.

Hela cells = test: Toxicity to Hela cells; conditions: 1000 ug/ml (highest concentration tested)
P388 = test: Growth inhibition in suspension cell culture, P388; type: cell-based; conditions: Mus musculus, 72 hours, cell count 50 percent of untreated control, read-out: ID50 (the source's name)
Description: In further tests, growth-inhibitory effects of COMPOUND 1 and COMPOUND 2 were measured against 3 mouse tumor lines in suspension cell culture. Cell cultures were initiated at a density of 50,000 cells/ml in medium RPMI 1630 supplemented with 10 percent fetal calf serum. Composition of this culture medium and details of the culture procedure followed the published method (G. E. Moore, A. A. Sandberg and K. Ulrich, Suspension Cell Culture and in vivo and in-vitro chromosome constitution of mouse leukemia L1210, Journal of the National Cancer Institute 36, 405-415, 1966). Cultures were maintained at 37 degrees in stationary suspension culture under a 95 percent air+5 percent CO2 atmosphere. Test compounds were added to treated cultures at the time of initiation, and were present continually. After 72 hours, 40-fold dilutions of drug-treated and untreated control cultures were prepared in 0.9 percent NACl solution, and cells were counted on an electronic particle counter. The growth-inhibitory effects are expressed as ID50 values, namely, test compound inhibitory dosages or concentrations required to decrease cell count in treated cultures to 50 percent of the cell count of untreated control cultures.

Lewis lung carcinoma [2] = test: Antitumor activity against Lewis lung carcinoma, Example 13 (Table II); type: in vivo, B6 D2 F1 female mice; conditions: for Treated Group Survival Time: median, control 16.9
Description: as §1, §2, §3
In this example COMPOUND 1 was tested in B6 D2 F1 female mice challenged with Lewis lung carcinoma. The median survival time of the test animals was compared to that of appropriate control animals.

MRC-5 cells = test: Toxicity to MRC-5 cells; conditions: 1000 ug/ml (highest concentration tested)
[3] = 3 mg/kg IP once daily for nine days
[4] = 6 mg/kg IP once daily for nine days
[5] = 9 mg/kg IP once daily for nine days
[6] = 13 mg/kg IP once daily for nine days
[7] = 20 mg/kg IP once daily for nine days
[8] = 33 mg/kg IP once daily for nine days
[9] = 50 mg/kg IP once daily for nine days
[10] = 75 mg/kg IP once daily for nine days
[11] = 12 mg/kg (12.50 mg/kg in source)

Structure (SMILES): NC(=O)c1c[se]c([C@@H]2O[C@H](CO)[C@@H](O)[C@H]2O)n1 [COMPOUND 1, 2-β-D-ribofuranosylselenazole-4-carboxamide]
- cytotoxicity in words (cell culture): low cytotoxicity
- toxicity to cells (Vero cells): non-toxic
- Cures (Lewis lung carcinoma [1]; [3]): One and 1/10
- Percent Treated Animal/Control Animal (T/C) (Lewis lung carcinoma [1]; [3]): 152%
- Treated Group Survival Time (Lewis lung carcinoma [1]; [3]): 28.9
- Cures (Lewis lung carcinoma [1]; [4]): 1/10
- Treated Group Survival Time (Lewis lung carcinoma [1]; [4]): 12.0
- Cures (Lewis lung carcinoma [1]; [5]): 3/10
- Treated Group Survival Time (Lewis lung carcinoma [1]; [5]): 10.4
- Cures (Lewis lung carcinoma [1]; [6]): 5 out of 10 and 5/10
- Percent Treated Animal/Control Animal (T/C) (Lewis lung carcinoma [1]; [6]): 315%
- Treated Group Survival Time (Lewis lung carcinoma [1]; [6]): 60.0
- Cures (Lewis lung carcinoma [1]; [7]): 2/10
- Treated Group Survival Time (Lewis lung carcinoma [1]; [7]): 16.0
- Cures (Lewis lung carcinoma [1]; [8]): 3/10
- Percent Treated Animal/Control Animal (T/C) (Lewis lung carcinoma [1]; [8]): 94%
- Treated Group Survival Time (Lewis lung carcinoma [1]; [8]): 18.0
- Cures (Lewis lung carcinoma [1]; [9]): 1/10
- Percent Treated Animal/Control Animal (T/C) (Lewis lung carcinoma [1]; [9]): 94%
- Treated Group Survival Time (Lewis lung carcinoma [1]; [9]): 18.0
- Cures (Lewis lung carcinoma [1]; [10]): 7 out of 10 and 7/10
- Percent Treated Animal/Control Animal (T/C) (Lewis lung carcinoma [1]; [10]): 315%
- Treated Group Survival Time (Lewis lung carcinoma [1]; [10]): 60.0
- survival of treated animals in words (Lewis lung carcinoma [1]; 75 and 13 mg/kg IP): all of the treated animals survived
- antitumor activity in words (Lewis lung carcinoma [1]; Lewis lung carcinoma, mice): active against Lewis lung carcinoma; also recorded: outstanding activity against Lewis lung carcinoma
- mortality attributable to drug toxicity (Lewis lung carcinoma [1]; cut-off day five, 3-75 mg/kg IP once daily): no mortality attributable to drug toxicity
- DN2 criteria of NCI (Lewis lung carcinoma [1]; mouse, in vivo): successfully passed the DN (decision network) 2 criteria; also recorded: DN2 criteria of NCI were passed
- antiviral activity in words (VSV; HeLa cells, Rhabdoviridae (VSV)): Excellent antiviral activity
- Virus Rating (VSV; HeLa): 2.1
- Virus Rating (VSV; Vero): 0.4
- EC50 (VSV; HeLa): 9 µg/mL (≈ 29.3 µM)
- EC50 (VSV; Vero): 1000 µg/mL (≈ 3260 µM)
- antiviral activity in words (DNA and RNA viruses; DNA and RNA viruses, Vero or HeLa cells): showed activity against both small and large viruses of both DNA and RNA types; also recorded: good broad spectrum antiviral activity against both DNA and RNA viruses
- inhibition of viral cytopathic effects in words (DNA and RNA viruses; cell culture, representative viruses): inhibits viral cytopathic effects in cell culture for representative viruses at extremely low dosage
- toxicity to cells (Hela cells): non-toxic
- IC50 (P388): 270 nM
- Cures (Lewis lung carcinoma [2]; [11]): 8 out of 10 and 8/10
- Percent Treated Animals/Control Animals (T/C) (Lewis lung carcinoma [2]; [11]): 355%
- Treated Group Survival Time (Lewis lung carcinoma [2]; [11]): 60.0
- Cures (Lewis lung carcinoma [2]; 25 mg/kg): 7 out of 10 and 7/10
- Percent Treated Animals/Control Animals (T/C) (Lewis lung carcinoma [2]; 25 mg/kg): 355%
- Treated Group Survival Time (Lewis lung carcinoma [2]; 25 mg/kg): 60.0
- Cures (Lewis lung carcinoma [2]; 50 mg/kg): 6 out of 10 and 6/10
- Percent Treated Animals/Control Animals (T/C) (Lewis lung carcinoma [2]; 50 mg/kg): 355%
- Treated Group Survival Time (Lewis lung carcinoma [2]; 50 mg/kg): 60.0
- Cures (Lewis lung carcinoma [2]; 100 mg/kg): 3/10
- Percent Treated Animals/Control Animals (T/C) (Lewis lung carcinoma [2]; 100 mg/kg): 120%
- Treated Group Survival Time (Lewis lung carcinoma [2]; 100 mg/kg): 20.3
- Cures (Lewis lung carcinoma [2]; 200 mg/kg): 0/10
- Treated Group Survival Time (Lewis lung carcinoma [2]; 200 mg/kg): 10.7
- survival of test animals in words (Lewis lung carcinoma [2]; 50, 25 and 12.50 mg/kg): all of the test animals survived
- antitumor activity in words (Lewis lung carcinoma [2]; median survival time versus control): effective antitumor agent
- toxicity to cells (MRC-5 cells): non-toxic
